Results published in US9149038B2, “4-amino-6-(heterocyclic)picolinates and 6-amino-2-(heterocyclic)pyrimidine-4-carboxylates and their use as herbicides” (Dow AgroSciences LLC, priority 2013, dated 2015).
Like-named read-outs stand apart in the source and are kept apart here.

Experiments:
[1] = test system: Key Broadleaf Weed and Crop Species; experiment: Post-Emergent Test II: postemergent herbicidal activity, visual rating after 14 d (Table 7); format: in vivo; settings: post-emergence, 336 h; for pest or weed control at 35 g/ha: 35 g ai/ha; for pest or weed control at 70 g/ha: 70 g ai/ha; for pest or weed control at 140 g/ha: 140 g ai/ha
Method in brief: (§1)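 Greenhouse plants at first or second true leaf stage sprayed with compound in acetone/DMSO-based spray solution with crop oil concentrate and Triton X-155 at 187 L/ha, tested at highest rate and ½× to 1/16× dilutions; solvent blank controls. Injury rated visually 0–100% versus untreated plants after 14 d.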

[2] = test system: Key Grass and Sedge Weeds as well as Grass Crops; experiment: Post-Emergent Test II: postemergent herbicidal activity, visual rating after 14 d (Table 8); format: in vivo; settings: post-emergence, 336 h; for pest or weed control at 35 g/ha: 35 g ai/ha; for pest or weed control at 70 g/ha: 70 g ai/ha; for pest or weed control at 140 g/ha: 140 g ai/ha
Method in brief: as §1

[3] = lambsquarters (Chenopodium album), read-out: Visual Growth Reduction (%) 14 Days After Application CHEAL
[4] = oilseed rape, canola (Brassica napus), read-out: Visual Growth Reduction (%) 14 Days After Application BRSNN
[5] = redroot pigweed (Amaranthus retroflexus), read-out: Visual Growth Reduction (%) 14 Days After Application AMARE
[6] = sunflower (Helianthus annuus), read-out: Visual Growth Reduction (%) 14 Days After Application HELAN
[7] = velvetleaf (Abutilon theophrasti), read-out: Visual Growth Reduction (%) 14 Days After Application ABUTH
[8] = wild poinsettia (Euphorbia heterophylla), read-out: Visual Growth Reduction (%) 14 Days After Application EPHHL
[9] = barnyardgrass (Echinochloa crus-galli), read-out: Visual Growth Reduction (%) 14 Days After Application ECHCG
[10] = giant foxtail (Setaria faberi), read-out: Visual Growth Reduction (%) 14 Days After Application SETFA
[11] = maize, corn (Zea mays), read-out: Visual Growth Reduction (%) 14 Days After Application ZEAMX
[12] = rice (Oryza sativa), read-out: Visual Growth Reduction (%) 14 Days After Application ORYSA
[13] = wheat, spring (Triticum aestivum), read-out: Visual Growth Reduction (%) 14 Days After Application TRZAS
[14] = yellow nutsedge (Cyperus esculentus), read-out: Visual Growth Reduction (%) 14 Days After Application CYPES

SMILES | pest or weed control at 35 g/ha [1, 3] | pest or weed control at 70 g/ha [1, 3] | pest or weed control at 140 g/ha [1, 3] | pest or weed control at 35 g/ha [1, 4] | pest or weed control at 70 g/ha [1, 4] | pest or weed control at 140 g/ha [1, 4] | pest or weed control at 35 g/ha [1, 5] | pest or weed control at 70 g/ha [1, 5] | pest or weed control at 140 g/ha [1, 5] | pest or weed control at 35 g/ha [1, 6] | pest or weed control at 70 g/ha [1, 6] | pest or weed control at 140 g/ha [1, 6] | pest or weed control at 35 g/ha [1, 7] | pest or weed control at 70 g/ha [1, 7] | pest or weed control at 140 g/ha [1, 7] | pest or weed control at 35 g/ha [1, 8] | pest or weed control at 70 g/ha [1, 8] | pest or weed control at 140 g/ha [1, 8] | pest or weed control at 35 g/ha [2, 9] | pest or weed control at 70 g/ha [2, 9] | further results
COC(=O)c1nc(-c2cc3c(cc2Cl)OC(F)(F)O3)c(F)c(N)c1Cl [Compound 12] | 0 to 29% | 0 to 29% | 0 to 29% | 0 to 29% | 0 to 29% | 0 to 29% | 0 to 29% | 0 to 29% | 0 to 29% | 0 to 29% | 0 to 29% | 0 to 29% | 0 to 29% | 0 to 29% | 60 to 74% | 0 to 29% | 0 to 29% | 0 to 29% | 0 to 29% | 0 to 29% | pest or weed control at 140 g/ha [2, 9]: 0 to 29%; pest or weed control at 35 g/ha [2, 10]: 0 to 29%; pest or weed control at 70 g/ha [2, 10]: 0 to 29%; pest or weed control at 140 g/ha [2, 10]: 0 to 29%; pest or weed control at 35 g/ha [2, 11]: 0 to 29%; pest or weed control at 70 g/ha [2, 11]: 0 to 29%; pest or weed control at 140 g/ha [2, 11]: 0 to 29%; pest or weed control at 35 g/ha [2, 12]: 0 to 29%; pest or weed control at 70 g/ha [2, 12]: 0 to 29%; pest or weed control at 140 g/ha [2, 12]: 0 to 29%; pest or weed control at 35 g/ha [2, 13]: 0 to 29%; pest or weed control at 70 g/ha [2, 13]: 0 to 29%; pest or weed control at 140 g/ha [2, 13]: 0 to 29%; pest or weed control at 35 g/ha [2, 14]: 0 to 29%; pest or weed control at 70 g/ha [2, 14]: 0 to 29%; pest or weed control at 140 g/ha [2, 14]: 0 to 29%
Nc1c(F)c(-c2ccc(Br)c3c2OC(F)(F)O3)nc(C(=O)O)c1Cl [Compound 80] | 95 to 100% | 95 to 100% | 95 to 100% | 85 to 94% | 85 to 94% | 85 to 94% | 95 to 100% | 95 to 100% | 95 to 100% | 85 to 94% | 85 to 94% | 85 to 94% | 60 to 74% | 75 to 84% | 85 to 94% | 0 to 29% | 0 to 29% | 0 to 29% | 0 to 29% | 0 to 29% | pest or weed control at 140 g/ha [2, 9]: 0 to 29%; pest or weed control at 35 g/ha [2, 10]: 0 to 29%; pest or weed control at 70 g/ha [2, 10]: 0 to 29%; pest or weed control at 140 g/ha [2, 10]: 0 to 29%; pest or weed control at 35 g/ha [2, 11]: 45 to 59%; pest or weed control at 70 g/ha [2, 11]: 60 to 74%; pest or weed control at 140 g/ha [2, 11]: 60 to 74%; pest or weed control at 35 g/ha [2, 12]: 0 to 29%; pest or weed control at 70 g/ha [2, 12]: 0 to 29%; pest or weed control at 140 g/ha [2, 12]: 0 to 29%; pest or weed control at 35 g/ha [2, 13]: 0 to 29%; pest or weed control at 70 g/ha [2, 13]: 0 to 29%; pest or weed control at 140 g/ha [2, 13]: 0 to 29%; pest or weed control at 35 g/ha [2, 14]: 0 to 29%; pest or weed control at 70 g/ha [2, 14]: 0 to 29%; pest or weed control at 140 g/ha [2, 14]: 0 to 29%
COC(=O)c1nc(-c2ccc3c(c2)OC(C)(C)O3)nc(N)c1Cl [Compound 55] | 45 to 59% | 60 to 74% | 75 to 84% | 0 to 29% | 0 to 29% | 0 to 29% | 45 to 59% | 85 to 94% | 95 to 100% | 45 to 59% | 60 to 74% | 75 to 84% | 75 to 84% | 75 to 84% | 75 to 84% | 95 to 100% | 95 to 100% | 95 to 100% | 75 to 84% | 75 to 84% | pest or weed control at 140 g/ha [2, 9]: 75 to 84%; pest or weed control at 35 g/ha [2, 10]: 75 to 84%; pest or weed control at 70 g/ha [2, 10]: 85 to 94%; pest or weed control at 140 g/ha [2, 10]: 85 to 94%; pest or weed control at 35 g/ha [2, 11]: 60 to 74%; pest or weed control at 70 g/ha [2, 11]: 60 to 74%; pest or weed control at 140 g/ha [2, 11]: 60 to 74%; pest or weed control at 35 g/ha [2, 12]: 0 to 29%; pest or weed control at 70 g/ha [2, 12]: 0 to 29%; pest or weed control at 140 g/ha [2, 12]: 0 to 29%; pest or weed control at 35 g/ha [2, 13]: 0 to 29%; pest or weed control at 70 g/ha [2, 13]: 0 to 29%; pest or weed control at 140 g/ha [2, 13]: 0 to 29%; pest or weed control at 35 g/ha [2, 14]: 0 to 29%; pest or weed control at 70 g/ha [2, 14]: 0 to 29%; pest or weed control at 140 g/ha [2, 14]: 0 to 29%
